Measurements: patent US12486278B2, “MASP-2 inhibitors and methods of use” (Omeros Corporation, priority 2019, dated 2025)
Structures can show the parent of a compound that is named as a salt.

Each compound was assayed against T1, MASP-2 (CCP1-CCP2-SP) (Homo sapiens, UniProt O00187) (assay: Enzymatic Assay for MASP-2 (fluorogenic substrate)). Settings: fluorogenic substrate based on C2 cleavage site; room temperature, 20 min; 20 mM HEPES pH 7.4, 140 mM NaCl, 0.1% Tween 20.
T1 construct: 15 μL of Enzyme MASP-2 (CCP1-CCP2-SP) in Assay Buffer
Assay type: biochemical
Method: The MASP-2 assay utilizes a fluorogenic substrate, based on the cleavage site for its natural substrate C2. The assay is run at room temperature in an assay buffer containing 20 mM HEPES, pH 7.4, 140 mM NaCl and 0.1% Tween 20. Assay parameters are adjusted such that the assay is linear with respect to time, enzyme, and substrate concentrations. Under these optimized assays conditions, IC50 values are equivalent to Ki values, except in a few cases of “tight binding” inhibitors. Cases of “tight binding” or possible “slow binding” inhibitors are handled by the methods described in Copeland R. A. (2013) Evaluation of Enzyme Inhibitors in Drug Discovery. 2nd Ed., John Wiley and Sons, Inc., Chapters 5-7.
The MASP-2 assay protocol is carried out as follows. Test compounds are serially diluted in DMSO and then 100 nL of each dilution is transferred to the assay plate(s). 10 μL of Assay Buffer is added, followed by 15 μL of Enzyme MASP-2 (CCP1-CCP2-SP) in Assay Buffer. 15 μL of Substrate in Assay Buffer is then added and mixed to start the reactions. After 20 min at room temperature, 15 μL of a stop solution (0.1 M acetic acid) is added, mixed and the plates are read on a SpectraMax i3x Microplate Reader and exported as Excel files. Each assay plate included a “no inhibitor” (DMSO Only) control, a “no enzyme” control and a reference inhibitor control. % Activity values=100*(average test comp. fluorescence−average “no enzyme” fluorescence)/(average “DMSO only” fluorescence−average “no enzyme” fluorescence). IC50 and Ki values are very reproducible, falling well within ±2-fold.

T1 sequence (O00187 445-686 limits assumed): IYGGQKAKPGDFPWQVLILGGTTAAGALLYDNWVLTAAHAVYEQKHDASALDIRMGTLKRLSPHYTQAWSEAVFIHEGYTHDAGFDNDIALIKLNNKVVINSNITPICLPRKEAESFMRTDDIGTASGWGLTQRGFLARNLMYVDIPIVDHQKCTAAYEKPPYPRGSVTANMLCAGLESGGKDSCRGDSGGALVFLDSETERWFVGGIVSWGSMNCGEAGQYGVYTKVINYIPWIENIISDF
T1 sequence (O00187 298-444 partner limits assumed): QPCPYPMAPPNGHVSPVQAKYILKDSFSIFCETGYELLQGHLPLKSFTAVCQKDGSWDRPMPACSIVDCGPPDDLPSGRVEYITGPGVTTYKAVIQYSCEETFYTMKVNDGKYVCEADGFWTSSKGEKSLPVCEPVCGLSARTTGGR

`C[C@H](NC(=O)[C@H]1C=C(C2(c3ccccc3)CC2)CN1)C(=O)NCc1ccc(C(=N)N)cc1` [Compound I-52, (R)—N—((S)-1-((4-Carbamimidoylbenzyl)Amino)-1-Oxopropan-2-Yl)-4-(1-Phenylcyclopropyl)-2,5-Dihydro-1H-Pyrrole-2-Carboxamide Di-Trifluoroacetate] and `Cc1cccc([C@@H]2CN[C@@H](C(=O)N[C@@H](C)C(=O)NCc3ccc(C(=N)N)cc3)C2)c1` [Compound I-13, (2R,4R)—N—((S)-1-((4-Carbamimidoylbenzyl)Amino)-1-Oxopropan-2-Yl)-4-(M-Tolyl)Pyrrolidine-2-Carboxamide] cannot be ordered by Ki: less than 0.5 µM for the first, less than 0.5 µM for the second.

`C[C@H](NC(=O)[C@H]1C[C@@H](c2ccc(N3CCOCC3)cc2)CCN1)C(=O)NCc1ccc(C(=N)N)cc1` [Compound I-76, (2R,4S)—N—((S)-1-((4-Carbamimidoylbenzyl)Amino)-1-Oxopropan-2-Yl)-4-(4-Morpholinophenyl)Piperidine-2-Carboxamide Dihydrochloride] and `C[C@H](NC(=O)[C@H]1C[C@H](c2cccc(CO)c2)CN1)C(=O)NCc1ccc(C(=N)N)cc1` [Compound I-94, (2R,4R)—N—((S)-1-((4-Carbamimidoylbenzyl)Amino)-1-Oxopropan-2-Yl)-4-(3-(Hydroxymethyl)Phenyl)Pyrrolidine-2-Carboxamide Di-Trifluoroacetate] cannot be ordered by Ki: less than 0.5 µM for the first, less than 0.5 µM for the second.

`C[C@H](NC(=O)[C@H]1C[C@@H](c2ccc(-c3ccccc3)cc2)CCN1)C(=O)NCc1cc2cnccc2[nH]1` [Compound I-74, (2R,4S)—N—((S)-1-(((1H-Pyrrolo[3,2-C]Pyridin-2-Yl)Methyl)Amino)-1-Oxopropan-2-Yl)-4-([1,1′-Biphenyl]-4-Yl)Piperidine-2-Carboxamide Di-Trifluoroacetate] and `C[C@H](NC(=O)[C@H]1C[C@@H](c2ccc(-c3cccnc3)cc2)CCN1)C(=O)NCc1cc2cnccc2[nH]1` [Compound I-73, (2R,4S)—N—((S)-1-(((1H-Pyrrolo[3,2-C]Pyridin-2-Yl)Methyl)Amino)-1-Oxopropan-2-Yl)-4-(4-(Pyridin-3-Yl)Phenyl)Piperidine-2-Carboxamide Tri-Trifluoroacetate] cannot be ordered by Ki: less than 0.5 µM for the first, less than 0.5 µM for the second.

`Cc1nc(N)ccc1CNC(=O)[C@H](C)NC(=O)[C@H]1C[C@H](Cc2cccc(C(=O)NCCCCl)c2)CN1` [Compound I-49, (2R,4S)—N—((S)-1-(((6-Amino-2-Methylpyridin-3-Yl)Methyl)Amino)-1-Oxopropan-2-Yl)-4-(3-((3-Chloropropyl)Carbamoyl)Benzyl)Pyrrolidine-2-Carboxamide Di-Trifluoroacetate] and `C[C@H](NC(=O)[C@H]1C[C@H](Cc2ccc(Cl)s2)CN1)C(=O)NCc1cnc2c(c1)c(Cl)cn2C` [Compound I-84, (2R,4R)—N—((S)-1-(((3-Chloro-1-Methyl-1H-Pyrrolo[2,3-B]Pyridin-5-Yl)Methyl)Amino)-1-Oxopropan-2-Yl)-4-((5-Chlorothiophen-2-Yl)Methyl)Pyrrolidine-2-Carboxamide Dihydrochloride] cannot be ordered by Ki: less than 0.5 µM for the first, less than 0.5 µM for the second.

First: C[C@H](NC(=O)[C@H]1C[C@@H](c2ccccc2)CCN1CCC(=O)O)C(=O)NCc1cc(Cl)ccc1-n1cnnn1 [Compound I-29, 3-((2R,4S)-2-(((S)-1-((5-Chloro-2-(1H-Tetrazol-1-Yl)Benzyl)Amino)-1-Oxopropan-2-Yl)Carbamoyl)-4-Phenylpiperidin-1-Yl)Propanoic Acid Trifluoroacetate]
Second: C[C@H](NC(=O)[C@H]1C[C@H](c2ccccc2)CN1)C(=O)NCc1[nH]c2ccncc2c1F [Compound I-7, (2R,4R)—N—((S)-1-(((3-Fluoro-1H-Pyrrolo[3,2-C]Pyridin-2-Yl)Methyl)Amino)-1-Oxopropan-2-Yl)-4-Phenylpyrrolidine-2-Carboxamide Di-Trifluoroacetate]
The Ki of the first is higher: 2.5 to 10 µM for the first, less than 0.5 µM for the second. The second binds more tightly here.
